pIC50: −log10 of the molar value.

For the assay, the target named is T1, Recombinant Human 5′-Nucleotidase (CD73) (Homo sapiens, UniProt P21589).
T1 construct: CHO derived CD73 (Trp27-Lys547), with a C-terminal 6-His tag; 6-His (C); purchased R&D 5795-EN; host or cells: CHO
T1 sequence (P21589 27-547): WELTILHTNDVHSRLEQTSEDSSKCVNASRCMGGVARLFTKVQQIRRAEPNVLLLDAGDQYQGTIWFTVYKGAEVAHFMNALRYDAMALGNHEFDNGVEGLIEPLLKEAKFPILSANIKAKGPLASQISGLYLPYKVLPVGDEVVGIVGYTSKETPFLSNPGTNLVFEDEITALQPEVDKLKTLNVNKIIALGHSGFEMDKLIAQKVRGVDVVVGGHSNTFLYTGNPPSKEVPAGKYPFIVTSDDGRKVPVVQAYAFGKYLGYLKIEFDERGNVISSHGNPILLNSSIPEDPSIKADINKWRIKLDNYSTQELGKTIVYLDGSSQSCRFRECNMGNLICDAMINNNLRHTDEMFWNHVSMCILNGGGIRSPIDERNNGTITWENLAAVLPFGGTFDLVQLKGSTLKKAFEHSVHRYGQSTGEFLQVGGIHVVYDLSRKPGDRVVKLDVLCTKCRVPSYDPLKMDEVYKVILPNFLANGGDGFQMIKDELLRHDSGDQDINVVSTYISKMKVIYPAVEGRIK
Description: CD73 Enzyme Assay (PiColorLock inorganic phosphate detection, AMP substrate). It counts as biochemical. The conditions noted are these: human CD73 0.5 nM, AMP 30 μM, 20 min at 37° C., absorbance 635 nm; read-out: Potency (IC50). An excerpt: Soluble recombinant CD73 catalyzes the conversion of adenosine monophosphate (AMP) to adenosine and inorganic phosphate. The phosphate detection reagent, PiColorLock™ (Innova Bioscience, Cat #303-0125) is based on the change in absorbance of the dye malachite green in the presence of inorganic phosphate (Pi) and this property can be exploited to measure any enzyme that generates Pi. Recombinant Human 5′-Nucleotidase (CD73) (R&D #5795-EN, CHO derived CD73 (Trp27-Lys547), with a C-terminal 6-His tag) was used in the enzymatic assay. This assay, run in a 384-well plate format (Corning® NBS™ 384 well plates, Cat #3640), is a generic method for measuring inorganic phosphate. The basic assay procedure involves two steps: 1) Enzyme reaction: The CD73 enzyme (R&D #5795-EN) is incubated in the presence or absence of compounds. AMP (sigma, cat #01930) is added to start the […] reaction. 2) Detection step: Gold mix is added to the assay system, then stabilizers are added. After incubation the absorbance of the solution is read at OD 635 nm. The recorded OD signal is proportional to the enzyme activity.
Briefly, 25 μl human CD73 (0.5 nM final concentration) in the enzymatic buffer solutions (20 mM Tris, 25 mM NaCl, 1 mM MgCl2, pH 7.5, 0.005% Tween-20) were mixed with various concentrations of the test compound (dissolved in 100% DMSO). These solutions were incubated for 15 min at 25° C., and subsequently 25 μl AMP (30 μM final concentration) was added to start the reaction. The final reaction mixture of enzyme-substrate-compound was incubated for 20 min at 37° C. Meanwhile ‘Gold mix’ was prepared shortly before use by adding 1/100 vol. of accelerator to the PiColorLock™ Gold reagent. 12 μL/well of the ‘Gold mix’ was added to assay plate containing 50 μL enzyme reaction buffer and incubated at 25° C. for 5 min. 5 μL/well stabilizer was added to the assay plate and incubated at 25° C. for 30 min. The absorbance of the well solutions was measured at 635 nm on a Spark 10M instrument (TECAN).
The percent (%) inhibition at each concentration of a compound was calculated relative to the […] value in the Max and Min control wells contained within each assay plate. The Max control wells contained enzyme and substrate as 0% inhibition, and the Min control wells only contained substrate without enzyme as 100% inhibition. The concentrations and percent inhibition values for a test compound are plotted and the concentration of the compound required to achieve 50% inhibition (IC50) was determined with a four-parameter logistic dose response equation.
As to `O=P(O)(O)CP(=O)(O)OC[C@H]1O[C@@H](c2cnc3c(N4CCC(F)(F)C4)cc(Cl)nn23)[C@H](O)[C@@H]1O` [Example S35, (((((2R,3S,4R,5S)-5-(6-chloro-8-(3,3-difluoropyrrolidin-1-yl)imidazo[1,2-b]pyridazin-3-yl)-3,4-dihydroxytetrahydrofuran-2-yl)methoxy)(hydroxy)phosphoryl)methyl)phosphonic acid], the pIC50 (in general, −log10 of the IC50, conventionally taken in molar units) was 8.00 to 9.00.

In the case of `C[C@H](Nc1cc(Cl)nn2c([C@@H]3O[C@H](COP(=O)(O)CP(=O)(O)O)[C@@H](O)[C@H]3O)ncc12)c1ccccc1F` [Example S37, (((((2R,3S,4R,5S)-5-(2-chloro-4-(((S)-1-(2-fluorophenyl)ethyl)amino)imidazo[1,5-b]pyridazin-7-yl)-3,4-dihydroxytetrahydrofuran-2-yl)methoxy)(hydroxy)phosphoryl)methyl)phosphonic acid], the pIC50 is 8.00 to 9.00. For `O=P(O)(O)CP(=O)(O)OC[C@H]1O[C@@H](c2ncc3c(N4CCCC4)cc(Cl)nn23)[C@H](O)[C@@H]1O` [Example S38, [({[(2R,3S,4R,5S)-5-[2-chloro-4-(pyrrolidin-1-yl)imidazo[1,5-b]pyridazin-7-yl]-3,4-dihydroxyoxolan-2-yl]methoxy}(hydroxy)phosphoryl)methyl]phosphonic acid] the value was 8.00 to 9.00; for `O=P(O)(O)CP(=O)(O)OC[C@H]1O[C@@H](c2ncc3c(N4CC5CC5C4)cc(Cl)nn23)[C@H](O)[C@@H]1O` (stereo partly drawn) [Example S39, (((((2R,3S,4R,5S)-5-(4-(3-azabicyclo[3.1.0]hexan-3-yl)-2-chloroimidazo[1,5-b]pyridazin-7-yl)-3,4-dihydroxytetrahydrofuran-2-yl)methoxy)(hydroxy)phosphoryl)methyl)phosphonic acid], 8.00 to 9.00; for `O=P(O)(O)CP(=O)(O)OC[C@H]1O[C@@H](c2ncc3c(N4CCc5ccccc54)cc(Cl)nn23)[C@H](O)[C@@H]1O` [Example S40, [({[(2R,3S,4R,5S)-5-[2-chloro-4-(2,3-dihydroindol-1-yl)imidazo[1,5-b]pyridazin-7-yl]-3,4-dihydroxyoxolan-2-yl]methoxy}(hydroxy)phosphoryl)methyl]phosphonic acid], 8.00 to 9.00.

In the case of `O=P(O)(O)CP(=O)(O)OC[C@H]1O[C@@H](c2csc3c(N4CC5CCCC5C4)nc(Cl)nc23)[C@H](O)[C@@H]1O` (stereo partly drawn) [Example S41, [({[(2R,3S,4R,5S)-5-(2-chloro-4-{hexahydro-1H-cyclopenta[c]pyrrol-2-yl}thieno[3,2-d]pyrimidin-7-yl)-3,4-dihydroxyoxolan-2-yl]methoxy}(hydroxy)phosphoryl)methyl]phosphonic acid], the pIC50 is 7.00 to 8.00. `O=P(O)(O)CP(=O)(O)OC[C@H]1O[C@@H](c2csc3c(N4CCCC4)cc(Cl)nc23)[C@H](O)[C@@H]1O` [Example S42, [({[(2R,3S,4R,5S)-5-[5-chloro-7-(pyrrolidin-1-yl)thieno[3,2-b]pyridin-3-yl]-3,4-dihydroxyoxolan-2-yl]methoxy}(hydroxy)phosphoryl)methyl]phosphonic acid]: the pIC50 is 8.00 to 9.00. With `O=P(O)(O)CP(=O)(O)OC[C@H]1O[C@@H](c2csc3c(N4CC5CCCC5C4)cc(Cl)nc23)[C@@H](F)[C@@H]1O` (stereo partly drawn) [Example S43, (((((2R,3R,4S,5S)-5-(5-chloro-7-(hexahydrocyclopenta[c]pyrrol-2 (1H)-yl)thieno[3,2-b]pyridin-3-yl)-4-fluoro-3-hydroxytetrahydrofuran-2-yl)methoxy)(hydroxy)phosphoryl)methyl)phosphonic acid] the figure was 7.00 to 8.00. For `O=P(O)(O)CP(=O)(O)OC[C@H]1O[C@@H](c2csc3c(N4CC5CCCC5C4)nc(Cl)nc23)[C@@H](F)[C@@H]1O` (stereo partly drawn) [Example S44, [({[(2R,3R,4S,5S)-5-(2-chloro-4-{hexahydro-1H-cyclopenta[c]pyrrol-2-yl}thieno[3,2-d]pyrimidin-7-yl)-4-fluoro-3-hydroxyoxolan-2-yl]methoxy}(hydroxy)phosphoryl)methyl]phosphonic acid] the value was 7.00 to 8.00.

The values above are taken from patent US20230033360A1, “COMPOUNDS AS CD73 INHIBITORS” (BioArdis LLC, priority 2019, published 2023).
